Laboratory results from patent US11066414B2, “Cot modulators and methods of use thereof” (Gilead Sciences, Inc., priority 2015, dated 2021).

Assays:
TNFα = test: Cot Monocyte TNFα Cell Based Assay; details: Homo sapiens, Monocyte, read-out: EC50 TNF, LPS-stimulated human monocytes, TNFα
Human Cot = Human Cot (Homo sapiens (Human), UniProt P41279); test: High Throughput Cot Biochemical Assay; details: IC50 HTRF, Cot HTRF (TR-FRET) biochemical assay
Human Cot, sequence (P41279 30-397): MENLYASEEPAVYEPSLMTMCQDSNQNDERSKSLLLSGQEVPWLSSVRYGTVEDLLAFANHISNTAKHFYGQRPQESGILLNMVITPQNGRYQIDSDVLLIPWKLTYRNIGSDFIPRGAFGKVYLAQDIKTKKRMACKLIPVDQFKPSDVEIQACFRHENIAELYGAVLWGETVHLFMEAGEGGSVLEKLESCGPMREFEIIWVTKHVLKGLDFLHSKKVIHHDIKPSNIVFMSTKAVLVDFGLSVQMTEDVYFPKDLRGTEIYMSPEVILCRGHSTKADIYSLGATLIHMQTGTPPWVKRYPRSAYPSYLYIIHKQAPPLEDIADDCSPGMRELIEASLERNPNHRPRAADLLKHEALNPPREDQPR

SMILES | EC50 (TNFα) | IC50 (Human Cot)
Cc1nc(F)ccc1[C@H](Nc1cc(Cl)c2ncc(C#N)c(NCC(C)(C)C)c2c1)c1cn(C2(C(F)F)CC2)nn1 [Example 447, (S)-8-chloro-6-(((1-(1-(difluoromethyl)-cyclopropyl)-1H-1,2,3-triazol-4-yl)(6-fluoro-2-methylpyridin-3-yl)methyl)-amino)-4-(neopentylamino)quinoline-3-carbonitrile] | 40 nM | 2 nM
CC(C)(C)CNc1c(C#N)cnc2c(Cl)cc(N[C@H](c3cn(C4CC4)nn3)c3cccc4[nH]ncc34)cc12 [Example 448, (S)-8-chloro-6-(((1-cyclopropyl-1H-1,2,3-triazol-4-yl)(1H-indazol-4-yl)methyl)-amino)-4-(neopentylamino)quinoline-3-carbonitrile] | 44 nM | 2 nM
CC(C)(C)CNc1c(C#N)cnc2c(Cl)cc(N[C@H](c3cn(C4CC4)nn3)c3cccc4scnc34)cc12 [Example 449, (S)-6-((benzo[d]thiazol-4-yl(1-cyclopropyl-1H-1,2,3-triazol-4-yl)methyl)amino)-8-chloro-4-(neopentylamino)quinoline-3-carbonitrile] | 407 nM | 19 nM
CC1(C)COCCC1Nc1c(C#N)cnc2c(C#N)cc(N[C@H](c3cn(C4(C(F)(F)F)CC4)nn3)c3cccc4ncsc34)cc12 (stereo partly drawn) [Example 452, 6-(((S)-benzo[d]thiazol-7-yl(1-(1-(trifluoromethyl)cyclopropyl)-1H-1,2,3-triazol-4-yl)methyl)amino)-4-((3,3-dimethyltetrahydro-2H-pyran-4-yl)amino)quinoline-3,8-dicarbonitrile] | 73 nM | 4 nM
CC(=O)c1cc(N[C@H](c2cn(C3(C(F)(F)F)CC3)nn2)c2cccc3ncsc23)cc2c(NCC(C)(C)C)c(C#N)cnc12 [Example 453, (S)-8-acetyl-6-((benzo[d]thiazol-7-yl(1-(1-(trifluoromethyl)cyclopropyl)-1H-1,2,3-triazol-4-yl)methyl)amino)-4-(neopentylamino)quinoline-3-carbonitrile] | 184 nM | 9 nM
CC(C)(C)ONc1c(C#N)cnc2c(C#N)cc(N[C@H](c3cn(C4CC4)nn3)c3cccc4ncsc34)cc12 [Example 456, (S)-6-((benzo[d]thiazol-7-yl(1-cyclopropyl-1H-1,2,3-triazol-4-yl)methyl)amino)-4-(tert-butoxyamino)quinoline-3,8-dicarbonitrile] | 1000 nM | 51 nM
CC(C)(C)ONc1c(C#N)cnc2c(I)cc(N[C@H](c3cn(C4CC4)nn3)c3cccc4ncsc34)cc12 [Example 457, (S)-6-((benzo[d]thiazol-7-yl(1-cyclopropyl-1H-1,2,3-triazol-4-yl)methyl)amino)-4-(tert-butoxyamino)-8-iodoquinoline-3-carbonitrile] | 1000 nM | 315 nM
Cn1cnc2cccc([C@H](Nc3cc(Cl)c4ncc(C#N)c(NCC(C)(C)C)c4c3)c3cn(C4CC4)nn3)c21 [Example 459, (S)-8-chloro-6-(((1-cyclopropyl-1H-1,2,3-triazol-4-yl)(1-methyl-1H-benzo[d]imidazol-7-yl)methyl)amino)-4-(neopentylamino)quinoline-3-carbonitrile] | 50 nM | 3 nM
CC(C)(C)CNc1c(C#N)cnc2c(Cl)cc(N[C@H](c3cn(C4(C(N)=O)CCC4)nn3)c3cccc4ncsc34)cc12 [Example 463, (S)-1-(4-(benzo[d]thiazol-7-yl((8-chloro-3-cyano-4-(neopentylamino)quinolin-6-yl)amino)methyl)-1H-1,2,3-triazol-1-yl)cyclobutane-1-carboxamide] | 63 nM | 2 nM
CC(C)(C)CNc1c(C#N)cnc2c(C#N)cc(N[C@H](c3cn(C4(CO)CC4)nn3)c3cccc4ncsc34)cc12 [Example 465, (S)-6-((benzo[d]thiazol-7-yl(1-(1-(hydroxymethyl)cyclopropyl)-1H-1,2,3-triazol-4-yl)methyl)amino)-4-(neopentylamino)quinoline-3,8-dicarbonitrile] | 155 nM | 2 nM
CC(C)(C)CNc1c(C#N)cnc2c(Cl)cc(N[C@H](c3cn(C4CC4)nn3)c3cncc4cnccc34)cc12 [Example 466, (S)-8-chloro-6-(((1-cyclopropyl-1H-1,2,3-triazol-4-yl)(2,7-naphthyridin-4-yl)methyl)amino)-4-(neopentylamino)-quinoline-3-carbonitrile] | 926 nM | 28 nM

More lines, in order of falling EC50 (TNFα), values ahead:

EC50 (TNFα) | IC50 (Human Cot) | SMILES
8770 nM | 162 nM | CC(C)(C)CNc1c(C#N)cnc2c(Cl)cc(N[C@H](c3cn(C4(C(F)(F)F)CC4)nn3)c3cccc4cnccc34)cc12 [Example 462, (S)-8-chloro-6-((isoquinolin-5-yl(1-(1-(trifluoromethyl)cyclopropyl)-1H-1,2,3-triazol-4-yl)methyl)amino)-4-(neopentylamino)quinoline-3-carbonitrile]
356 nM | 20 nM | CC(C)(C)CNc1c(C#N)cnc2c(Cl)cc(N[C@H](c3cn(C4CC4)nn3)c3cccc4cccnc34)cc12 [Example 450, (S)-8-chloro-6-(((1-cyclopropyl-1H-1,2,3-triazol-4-yl)(quinolin-8-yl)methyl)amino)-4-(neopentylamino)quinoline-3-carbonitrile]
156 nM | 5 nM | CC(C)(C)CNc1c(C#N)cnc2c(C#N)cc(N[C@H](c3cn(CC(F)(F)F)nn3)c3cccc4ncsc34)cc12 [Example 460, (S)-6-((benzo[d]thiazol-7-yl(1-(2,2,2-trifluoroethyl)-1H-1,2,3-triazol-4-yl)methyl)amino)-4-(neopentylamino)-quinoline-3,8-dicarbonitrile]
154 nM | 17 nM | CC(C)(C)CNc1c(C#N)cnc2c(Cl)cc(N[C@H](c3cn(C4(C(F)(F)F)CC4)nn3)c3cccc4ncccc34)cc12 [Example 461, (S)-8-chloro-4-(neopentylamino)-6-((quinolin-5-yl(1-(1-(trifluoromethyl)-cyclopropyl)-1H-1,2,3-triazol-4-yl)methyl)amino)quinoline-3-carbonitrile]
138 nM | 3 nM | CC(C)(C)CNc1c(C#N)cnc2c(C#N)cc(N[C@H](c3cn(C4(C(F)(F)F)CC4)nn3)c3cccc4c3CNC4)cc12 [Example 451, (S)-6-((isoindolin-4-yl(1-(1-(trifluoro-methyl)cyclopropyl)-1H-1,2,3-triazol-4-yl)methyl)amino)-4-(neopentylamino)-quinoline-3,8-dicarbonitrile]
32 nM | 2 nM | Cc1nc(F)ccc1[C@H](Nc1cc(C#N)c2ncc(C#N)c(NCC(C)(C)C)c2c1)c1cn(C2CC2)nn1 [Example 454, (S)-6-(((1-cyclopropyl-1H-1,2,3-triazol-4-yl)(6-fluoro-2-methylpyridin-3-yl)methyl)amino)-4-(neopentylamino)-quinoline-3,8-dicarbonitrile]
16 nM | 1 nM | CC(C)(C)CNc1c(C#N)cnc2c(C#N)cc(N[C@H](c3cn(C4(c5ccncc5)CC4)nn3)c3cccc4ncsc34)cc12 [Example 464, (S)-6-((benzo[d]thiazol-7-yl(1-(1-(pyridin-4-yl)cyclopropyl)-1H-1,2,3-triazol-4-yl)methyl)amino)-4-(neopentylamino)-quinoline-3,8-dicarbonitrile]
